Test results published in patent US20090137593A1, “4-AMINO-2,6-DIMETHYLPHENOL COMPOUND, PROCESS FOR ITS PREPARATION AND PHARMACEUTICAL COMPOSITION COMPRISING THE SAME” (AZIEN CHIM RIUNITE ANGEL FRANC A.C.R.A.F. S.P.A., priority 2006, published 2009).
pIC50: −log10 of the molar value. Where a name gives a salt, the structure may show the parent alone. Each block holds one compound with its values, some of them ahead of it.

Experiments:
[1] = tested on: nociceptive response induced by mechanical hyperalgesia; assay: Anti-nociceptive activity (carrageenan-induced mechanical hyperalgesia, analgesimeter); format: in vivo, Male CD rats; settings: Rattus norvegicus; CD rats, ip 2 hours after carrageenan, evaluated 1, 2 and 4 hours after treatment; read-out: ED50 (anti-nociceptive, mechanical pain threshold)
[2] = tested on: nephritis induced by anti-GBM antibodies; assay: Effects on nephritis induced by anti-GBM antibodies (proteinuria over 24 hours); format: in vivo, Male WKY rats; settings: Rattus norvegicus, WKY rats, 100 mg/kg ip, 2 administrations per day, tenth day, read-out: percentage of inhibition of the amount of protein excreted (anti-GBM nephritis)
Protocol: This test allows evaluation in vivo of the effects on renal damage induced by the inflammatory response following the administration of anti-GBM antibodies (anti-glomerular basal membrane antibodies). Male WKY rats weighing 180-220 g were used. The nephritis was induced by intravenous injection of anti-GBM antibodies. Immediately after administration of the antibody and 6 hours later, Compound 2 was administered intraperitoneally (100 mg/kg). The treatment was continued for the following 9 days, with 2 administrations per day of the tested product. By following the same methods, the control animals received only the vehicle (methylcellulose) used to administer the tested compound. On the tenth day from injection of the antibodies, the effects on nephritis were evaluated by measuring the proteinuria over 24 hours and expressed as a percentage of inhibition of the amount of protein excreted.

enzyme 5-LO = target: T1, enzyme 5-LO (Homo sapiens, UniProt P09917); assay: Effect on the enzyme 5-LO in vitro (human PMNL cells, arachidonic acid substrate, leukotriene quantification); format: cell-based; settings: arachidonic acid as substrate, leukotriene (LT4) quantified
T1 construct: Human PMNL cells (polymorphonuclear leukocytes) were used; endogenous in cells; host or cells: human polymorphonuclear leukocytes (PMNL)
T1 sequence (P09917 1-674): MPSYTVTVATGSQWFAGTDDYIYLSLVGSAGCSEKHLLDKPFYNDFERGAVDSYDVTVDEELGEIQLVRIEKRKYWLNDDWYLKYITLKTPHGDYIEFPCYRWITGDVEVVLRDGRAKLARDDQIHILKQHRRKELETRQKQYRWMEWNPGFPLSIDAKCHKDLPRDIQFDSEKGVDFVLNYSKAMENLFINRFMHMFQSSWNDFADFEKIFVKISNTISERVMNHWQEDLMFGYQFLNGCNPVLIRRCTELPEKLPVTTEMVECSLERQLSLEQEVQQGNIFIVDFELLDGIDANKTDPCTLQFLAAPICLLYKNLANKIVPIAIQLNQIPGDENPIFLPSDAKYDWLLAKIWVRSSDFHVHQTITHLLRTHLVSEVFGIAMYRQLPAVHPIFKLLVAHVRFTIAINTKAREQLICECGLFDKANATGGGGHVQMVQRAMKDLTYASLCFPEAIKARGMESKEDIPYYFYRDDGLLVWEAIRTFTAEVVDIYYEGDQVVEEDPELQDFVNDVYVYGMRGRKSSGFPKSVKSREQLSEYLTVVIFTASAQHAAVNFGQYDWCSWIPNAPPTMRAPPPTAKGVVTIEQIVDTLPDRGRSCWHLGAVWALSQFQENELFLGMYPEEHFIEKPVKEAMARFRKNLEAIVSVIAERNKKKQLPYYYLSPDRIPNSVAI
Protocol: Human PMNL cells (polymorphonuclear leukocytes) were used.
The cells were incubated in the presence of N-(4-hydroxy-3,5-di-methylphenyl)-2-morpholin-4-yl acetamide hydrochloride (Compound 2), using arachidonic acid as reaction substrate.
The activity of the enzyme 5-LO was evaluated by quantifying leukotriene […], which is the final product of the enzymatic reaction.

[3] = tested on: yeast-induced febrile response; assay: Anti-pyretic activity (yeast-induced febrile response, rectal temperature); format: in vivo, Male CD rats; settings: CD rats; for effect on the febrile response (rectal temperature): 30 mg/kg ip 18 hours after yeast, FIG. 1
Protocol: This test allows in vivo evaluation of the effects on the yeast-induced febrile response. Male CD rats weighing 101-125 g were used. Fevers were induced by subcutaneous injection of a 15% yeast suspension. 18 hours after the administration of yeast, a first group of animals was treated intraperitoneally (30 mg/kg) with Compound 2, while a second group of animals was treated with the Comparison Compound. A third group of control animals received intraperitoneally only the vehicle (methylcellulose) used to administer the tested compounds. For all the groups, the rectal temperature was measured 30 minutes and 1, 2 and 4 hours after the treatment.

PAN-induced nephrosis = assay: Effects on PAN-induced nephrosis (proteinuria over 24 hours); format: in vivo, Male SD rats; settings: Rattus norvegicus, SD rats, 100 mg/kg ip on seventh day, read-out: percentage of inhibition of the amount of protein excreted (PAN-induced nephrosis)
Protocol: This test allows the in vivo evaluation of the effects on renal damage induced by the inflammatory response following the administration of PAN (puromycin aminonucleoside). Male SD rats weighing 180-220 g were used. The nephrosis was induced by intravenous injection of PAN (100 mg/kg). On the sixth day of administration of PAN, the presence of nephrosis was determined by measuring the amount of protein excreted in the urine over 24 hours (basal proteinuria). On the seventh day, the rats were treated intraperitoneally with Compound 2 (100 mg/kg) and for the next 24 hours the urine was collected to measure the proteinuria. By following the same method, the control animals received, intraperitoneally, only the vehicle (methylcellulose) used to administer the tested compound. The effects on the PAN-induced nephrosis were evaluated by measuring the proteinuria over 24 hours and expressed as a percentage of inhibition of the amount of protein excreted.

[4] = tested on: 5-LO-mediated bronchoconstriction; assay: Effect on 5-LO-mediated bronchoconstriction in vivo (ovalbumin-sensitized guinea pigs, intratracheal pressure); settings: Cavia porcellus, 100 mg/kg ip, 30 minutes before ovalbumin 15 μg/kg iv, read-out: percentage of inhibition of bronchoconstriction
Protocol: Guinea pigs weighing 250-400 g were used.
The animals were sensitized by administration on days 1 and 8 of ovalbumin (0.5 μg/animal, ip). Between days 19 and 23 after the sensitization, the capacity of ovalbumin (15 μg/kg, iv) to induce bronchoconstriction was tested by measuring the increase in intratracheal pressure.
On the day of the test, 30 minutes after administration of Compound 2 (100 mg/kg, ip), the animals were treated with mepiramine (2 mg/kg, iv), indomethacin (10 mg/kg, iv) and propranolol (0.1 mg/kg, iv), and then received ovalbumin (15 μg/kg, iv) to induce bronchoconstriction. The control animals received intraperitoneally only the vehicle used (methylcellulose) for the administration of the tested compound.
The effects on 5-LO-mediated bronchoconstriction in vivo were evaluated by measuring the intratracheal pressure, and are expressed as a percentage of inhibition of bronchoconstriction.

[5] = tested on: 5-LO-mediated bronchoconstriction; settings: Sakuma Y et al., Prostaglandins, 1991; cited from earlier work

- pIC50 (enzyme 5-LO): 4.51
SMILES: Cc1cc(NC(=O)CN2CCOCC2)cc(C)c1O [Compound 2, N-(4-Hydroxy-3,5-dimethylphenyl)-2-morpholin-4-yl acetamide hydrochloride]
- ED50 [1]: 3 mg/kg
- inhibition at 100 mg/kg [2]: 1%
- duration of the anti-pyretic effects ([3]; 30 mg/kg ip): about 4 hours
- time to significant reduction in the febrile response after treatment ([3]; 30 mg/kg ip): ≤ 1 h
- effect on the febrile response (rectal temperature) [3]: significant reduction in the febrile response
- inhibition at 100 mg/kg (PAN-induced nephrosis): 2%
- inhibition at 100 mg/kg [4]: 7%

SMILES: O=C1CCN(c2ccccc2)N1 [phenidone]
- percentage of inhibition of bronchoconstriction (literature reference) [5]: 86%

SMILES: Cc1cc(NC(=O)CCN2CCOCC2)cc(C)c1O [Comparison Compound, N-(4-Hydroxy-3,5-dimethylphenyl)-3-morpholin-4-yl propanamide hydrochloride, reference compound]
- ED50 [1]: > 100 mg/kg
- effect on the febrile response (rectal temperature) [3]: incapable of reducing the febrile response
